Laboratory results as given in article PMC9768625, “Is the vesicular nucleotide transporter a molecular target of eicosapentaenoic acid?” (Frontiers in Pharmacology, 2022).

Biological target: T1, V-ATPase (vacuolar H^+-ATPase), purified from chromaffin granules (Bos taurus, UniProt P23956+Q29466)
T1 construct: gene ATP6V0C; purified chromaffin granule V-ATPase in reconstituted proteoliposomes (multi-subunit complex; subunits A, B and c indicated)
Assay: colorimetric Mg-ATPase (Pi release) assay of proteoliposomes containing purified V-ATPase, con B at […]
Assay type: biochemical
Settings: proteoliposomes with purified v-atpase

C/C=C/[C@H]1O[C@@](O)([C@@H](C)[C@H](O)[C@H](C)[C@H]2OC(=O)/C(OC)=C/C(C)=C/[C@@H](C)[C@@H](O)[C@@H](C)[C@@H](O)[C@H](C)C/C(C)=C/C=C/[C@@H]2OC)C[C@@H](O[C@H]2C[C@@H](O)[C@H](OC(N)=O)[C@@H](C)O2)[C@@H]1C [con B, concanamycin B]
% of ATPase activity sensitive at 1 μM: > 95 % of ATPase activity sensitive at 1 μM
